Inconclusive results and toxic doses are left out. Cut-off read from the data, not from the text of the source: active = T/C of 150% or more; inactive = T/C below 125%.
System: L1210 leukemia ip in BDF1 mice, survival T/C
Test: NCI In Vivo Anticancer Drug Screen. Data for tumor model L1210 Leukemia (intraperitoneal) in B6D2F1 (BDF1) mice
Settings: endpoint: mean survival time, higher = longer survival
Method in brief: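 Survival endpoint. Drug-treated group vs vehicle group, expressed as T divided by C. Tumor passaged by transplantation.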

[1] = dose: 25.0 mg/kg/injection, schedule: Q04DX003 (ip), vehicle: Klucel (hydroxypropylcellulose) (HPC)
[2] = dose: 50.0 mg/kg/injection, schedule: Q01DX009 (ip), vehicle: saline with Tween-80
[3] = dose: 100.0 mg/kg/injection, schedule: Q01DX009 (ip), vehicle: saline with Tween-80
[4] = dose: 200.0 mg/kg/injection, schedule: Q01DX009 (ip), vehicle: saline with Tween-80

Measured: T/C

COC(=O)C(=CC(Cl)(Cl)Cl)C(=O)OC
inactive: dose: 6.2 mg/kg/injection, schedule: Q01DX009 (ip), vehicle: Klucel (hydroxypropylcellulose) (HPC) 102 % of control | dose: 12.5 mg/kg/injection, schedule: Q01DX009 (ip), vehicle: Klucel (hydroxypropylcellulose) (HPC) 96 % of control | dose: 25.0 mg/kg/injection, schedule: Q01DX009 (ip), vehicle: Klucel (hydroxypropylcellulose) (HPC) 96 % of control | [1] 102 % of control | dose: 50.0 mg/kg/injection, schedule: Q04DX003 (ip), vehicle: Klucel (hydroxypropylcellulose) (HPC) 97 % of control | dose: 100.0 mg/kg/injection, schedule: Q01DX001 (ip), vehicle: Klucel (hydroxypropylcellulose) (HPC) 101 % of control | dose: 100.0 mg/kg/injection, schedule: Q04DX003 (ip), vehicle: Klucel (hydroxypropylcellulose) (HPC) 97 % of control | dose: 200.0 mg/kg/injection, schedule: Q01DX001 (ip), vehicle: Klucel (hydroxypropylcellulose) (HPC) 105 % of control | dose: 200.0 mg/kg/injection, schedule: Q04DX003 (ip), vehicle: Klucel (hydroxypropylcellulose) (HPC) 102 % of control

OCc1ccc(Cl)cc1Cl
inactive: [2] 107 % of control | [3] 103 % of control | dose: 100.0 mg/kg/injection, schedule: Q04DX003 (ip), vehicle: saline with Tween-80 100 % of control | [4] 103 % of control | dose: 200.0 mg/kg/injection, schedule: Q04DX003 (ip), vehicle: saline with Tween-80 105 % of control | dose: 400.0 mg/kg/injection, schedule: Q04DX003 (ip), vehicle: saline with Tween-80 102 % of control

O=C(/C=C/c1ccc2c(c1)OCO2)c1ccc(Cl)cc1
inactive: [2] 97 % of control | [3] 95 % of control | [4] 96 % of control

CN(N=O)C(=O)NCC1OC(n2cnc3c(N)ncnc32)C(O)C1O (stereo not drawn)
inactive: dose: 9.0 mg/kg/injection, schedule: Q01DX001 (ip), vehicle: saline with Tween-80 95 % of control | dose: 13.0 mg/kg/injection, schedule: Q01DX001 (ip), vehicle: saline with Tween-80 98 % of control | dose: 26.0 mg/kg/injection, schedule: Q01DX001 (ip), vehicle: saline with Tween-80 96 % of control | dose: 40.0 mg/kg/injection, schedule: Q01DX001 (ip), vehicle: saline with Tween-80 96 % of control | dose: 60.0 mg/kg/injection, schedule: Q01DX001 (ip), vehicle: saline with Tween-80 98 % of control | dose: 90.0 mg/kg/injection, schedule: Q01DX001 (ip), vehicle: saline with Tween-80 103 % of control | dose: 133.0 mg/kg/injection, schedule: Q01DX001 (ip), vehicle: saline with Tween-80 101 % of control | dose: 200.0 mg/kg/injection, schedule: Q01DX001 (ip), vehicle: saline with Tween-80 106 % of control

C[N+]1(C)CCCCC1
inactive: dose: 12.5 mg/kg/injection, schedule: Q01DX009 (ip), vehicle: saline 106 % of control | dose: 25.0 mg/kg/injection, schedule: Q01DX009 (ip), vehicle: saline 101 % of control | dose: 50.0 mg/kg/injection, schedule: Q01DX009 (ip), vehicle: saline 97 % of control | dose: 50.0 mg/kg/injection, schedule: Q04DX003 (ip), vehicle: saline 101 % of control

CC(C)OCCCO
inactive: dose: 100.0 mg/kg/injection, schedule: Q01DX009 (ip), vehicle: saline 87 % of control | dose: 200.0 mg/kg/injection, schedule: Q01DX009 (ip), vehicle: saline 92 % of control | dose: 400.0 mg/kg/injection, schedule: Q01DX009 (ip), vehicle: saline 97 % of control

CC1=C[P+](C)(Cc2ccccc2)CC1 (stereo not drawn)
inactive: dose: 100.0 mg/kg/injection, schedule: Q01DX001 (ip), vehicle: saline 100 % of control

NC(=O)c1ccccc1N=NN(CCF)CCF
inactive: dose: 6.25 mg/kg/injection, schedule: Q01DX009 (ip), vehicle: Klucel (hydroxypropylcellulose) (HPC) 120 % of control | dose: 6.25 mg/kg/injection, schedule: Q04DX003 (ip), vehicle: Klucel (hydroxypropylcellulose) (HPC) 112 % of control | dose: 12.5 mg/kg/injection, schedule: Q01DX001 (ip), vehicle: Klucel (hydroxypropylcellulose) (HPC) 106 % of control | dose: 25.0 mg/kg/injection, schedule: Q01DX001 (ip), vehicle: Klucel (hydroxypropylcellulose) (HPC) 113 % of control | [1] 104 % of control
active: dose: 12.0 mg/kg/injection, schedule: Q04DX003 (ip), vehicle: Klucel (hydroxypropylcellulose) (HPC) 153 % of control | dose: 12.5 mg/kg/injection, schedule: Q04DX003 (ip), vehicle: Klucel (hydroxypropylcellulose) (HPC) 156 % of control

CC(=Nc1cccnc1)c1ccccc1
inactive: dose: 15.0 mg/kg/injection, schedule: Q01DX001 (ip), vehicle: carboxymethylcellulose (CMC) 98 % of control | dose: 30.0 mg/kg/injection, schedule: Q01DX001 (ip), vehicle: carboxymethylcellulose (CMC) 97 % of control

Reference: PubChem BioAssay AID248 (DTP/NCI, 2004)
